Values of other authors, collected in US20100249042A1, “COMPOSITIONS AND METHODS FOR TREATMENT OF EYELASHES AND EYEBROWS” (ProCyte Corporation, priority 2009, published 2010).

Columns and labels:
human hair follicles = settings: ex vivo; Pyo et al. 2007
[1] = system: Dermal papilla cells (DPCs); settings: in vitro; Pyo et al. 2007

L-alanyl-L-histidyl-L-lysine:copper(II) [AHK-Cu]
elongation of human hair follicles (human hair follicles): stimulated | proliferation of DPCs [1]: stimulated
